PubChem BioAssay AID220 (DTP/NCI, 2004)
“And” between values parts separate entries of the source, which are not always exact repeats. Equal entries are not always repeated. Results filed as inconclusive are left out. Residues, ends and D or L forms follow the SMILES beside them. *: point of attachment. Trt = c1ccc(C(c2ccccc2)(c2ccccc2)*)cc1; Cbz = O=C(OCc1ccccc1)*

Test system: CD8F1 mice, subcutaneous mammary adenocarcinoma, T/C%
Assay: NCI In Vivo Anticancer Drug Screen. Data for tumor model Mammary Adenocarcinoma CD8F1 (subcutaneous) in CD8F1
Conditions: higher = larger tumour
Summary of the method: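 Tumor-bearing mice, transplantable model; readout survival or tumor size; value = treated (T) / vehicle control (C).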

[1] = endpoint: median tumor weight change, dose: 62.5 mg/kg/injection, schedule: Q01DX001 (ip), vehicle: saline
[2] = endpoint: median tumor weight change, dose: 125.0 mg/kg/injection, schedule: Q01DX001 (ip), vehicle: saline with Tween-80
[3] = endpoint: median tumor weight change, dose: 250.0 mg/kg/injection, schedule: Q01DX001 (ip), vehicle: saline with Tween-80
[4] = endpoint: median tumor weight (est.), dose: 12.5 mg/kg/injection, schedule: Q07DX005 (ip), vehicle: saline with Tween-80
[5] = endpoint: median tumor weight (est.), dose: 25.0 mg/kg/injection, schedule: Q07DX005 (ip), vehicle: saline with Tween-80
[6] = endpoint: median tumor weight (est.), dose: 100.0 mg/kg/injection, schedule: Q07DX005 (ip), vehicle: saline with Tween-80
[7] = endpoint: median tumor weight (est.), dose: 400.0 mg/kg/injection, schedule: Q07DX005 (ip), vehicle: saline with Tween-80
[8] = endpoint: median tumor weight (est.), dose: 25.0 mg/kg/injection, schedule: Q07DX005 (ip), vehicle: Klucel (hydroxypropylcellulose) (HPC)
[9] = endpoint: median tumor weight (est.), dose: 50.0 mg/kg/injection, schedule: Q07DX005 (ip), vehicle: Klucel (hydroxypropylcellulose) (HPC)
[10] = endpoint: median tumor weight (est.), dose: 100.0 mg/kg/injection, schedule: Q07DX005 (ip), vehicle: Klucel (hydroxypropylcellulose) (HPC)

Structure (SMILES): CC12CCC3C(CCC4CC(OC(=O)Cc5ccc(N(CCCl)CCCl)cc5)CCC43C)C1CCC(=O)N2 (stereo unspecified)
- T/C (endpoint: median tumor weight (est.), dose: 0.75 mg/kg/injection, schedule: Q07DX005 (ip), vehicle: saline with Tween-80): 63 % of control
- T/C (endpoint: median tumor weight (est.), dose: 1.5 mg/kg/injection, schedule: Q07DX005 (ip), vehicle: saline with Tween-80): 109 % of control
- T/C (endpoint: median tumor weight (est.), dose: 3.0 mg/kg/injection, schedule: Q07DX005 (ip), vehicle: Klucel (hydroxypropylcellulose) (HPC)): 91 % of control
- T/C (endpoint: median tumor weight (est.), dose: 3.0 mg/kg/injection, schedule: Q07DX005 (ip), vehicle: saline with Tween-80): 99 % of control
- T/C (endpoint: median tumor weight (est.), dose: 6.0 mg/kg/injection, schedule: Q07DX005 (ip), vehicle: Klucel (hydroxypropylcellulose) (HPC)): 41 % of control
- T/C (endpoint: median tumor weight (est.), dose: 6.0 mg/kg/injection, schedule: Q07DX005 (ip), vehicle: saline with Tween-80): 55 % of control
- T/C (endpoint: median tumor weight (est.), dose: 12.0 mg/kg/injection, schedule: Q07DX005 (ip), vehicle: Klucel (hydroxypropylcellulose) (HPC)): 30 % of control
- T/C (endpoint: median tumor weight (est.), dose: 12.0 mg/kg/injection, schedule: Q07DX005 (ip), vehicle: saline with Tween-80): 12 % of control
- T/C (endpoint: median tumor weight (est.), dose: 24.0 mg/kg/injection, schedule: Q07DX005 (ip), vehicle: Klucel (hydroxypropylcellulose) (HPC)): 8 % of control
- T/C (endpoint: median tumor weight (est.), dose: 24.0 mg/kg/injection, schedule: Q07DX005 (ip), vehicle: saline with Tween-80): 1 % of control

Structure (SMILES): Cc1c2c(c(O)c3c(O)cccc13)C(=O)C1(O)C(O)=C(C(=O)NCNc3ccc(C(N)=O)cn3)C(=O)C(N(C)C)C1C2 (stereo unspecified)
- T/C (endpoint: median tumor weight change, dose: 15.62 mg/kg/injection, schedule: Q01DX001 (ip), vehicle: saline): 82 % of control
- T/C (endpoint: median tumor weight change, dose: 31.25 mg/kg/injection, schedule: Q01DX001 (ip), vehicle: saline): 70 % of control
- T/C [1]: 43 % of control
- T/C (endpoint: median tumor weight change, dose: 125.0 mg/kg/injection, schedule: Q01DX001 (ip), vehicle: saline): 34 % of control

Structure (SMILES): CCOC(=O)c1[nH]c2cccc3c2c1CC(Br)C3=O (stereo unspecified)
- T/C [2]: 86 % of control
- T/C [3]: 52 % of control

Structure (SMILES): C[n+]1c(/C=N/NC(N)=S)ccc2ccccc21
- T/C (endpoint: median tumor weight change, dose: 62.5 mg/kg/injection, schedule: Q01DX001 (ip), vehicle: saline with Tween-80): 108 % of control
- T/C [2]: 181 % of control
- T/C [3]: 77 % of control

Structure (SMILES): CCSC(=O)N1c2ccc(OC)cc2C=CC1C#N (stereo unspecified)
- T/C [4]: 93 % of control
- T/C [5]: 93 % of control
- T/C (endpoint: median tumor weight (est.), dose: 50.0 mg/kg/injection, schedule: Q07DX005 (ip), vehicle: saline with Tween-80): 69 % of control
- T/C [6]: 90 % of control
- T/C (endpoint: median tumor weight (est.), dose: 225.0 mg/kg/injection, schedule: Q07DX005 (ip), vehicle: saline with Tween-80): 59 % of control
- T/C [7]: 97 % of control
- T/C (endpoint: median tumor weight (est.), dose: 450.0 mg/kg/injection, schedule: Q07DX005 (ip), vehicle: saline with Tween-80): 95 % of control
- T/C (endpoint: median tumor weight (est.), dose: 900.0 mg/kg/injection, schedule: Q07DX005 (ip), vehicle: saline with Tween-80): 78 % of control

Structure (SMILES): Nc1ccn([C@@H](C=O)O[C@@H](C=O)CO)c(=O)n1
- T/C (endpoint: median tumor weight (est.), dose: 25.0 mg/kg/injection, schedule: Q07DX005 (ip), vehicle: suspension in saline): 122 % of control
- T/C (endpoint: median tumor weight (est.), dose: 50.0 mg/kg/injection, schedule: Q07DX005 (ip), vehicle: suspension in saline): 188 % of control
- T/C (endpoint: median tumor weight (est.), dose: 100.0 mg/kg/injection, schedule: Q07DX005 (ip), vehicle: suspension in saline): 151 % of control
- T/C (endpoint: median tumor weight (est.), dose: 200.0 mg/kg/injection, schedule: Q07DX005 (ip), vehicle: suspension in saline): 105 % of control

Structure (SMILES): BrC1CC(Br)c2c1c1c(c3c2C(Br)CC3Br)C(Br)CC1Br (stereo unspecified)
- T/C [4]: 87 % of control
- T/C [5]: 210 % of control and 98 % of control
- T/C [6]: 86 % of control
- T/C (endpoint: median tumor weight (est.), dose: 200.0 mg/kg/injection, schedule: Q07DX005 (ip), vehicle: saline with Tween-80): 71 % of control and 75 % of control
- T/C [7]: 40 % of control
- T/C [3]: 85 % of control
- T/C (endpoint: median tumor weight change, dose: 500.0 mg/kg/injection, schedule: Q01DX001 (ip), vehicle: saline with Tween-80): 88 % of control
- T/C (endpoint: median tumor weight change, dose: 1000.0 mg/kg/injection, schedule: Q01DX001 (ip), vehicle: saline with Tween-80): 59 % of control
- T/C (endpoint: median tumor weight change, dose: 2000.0 mg/kg/injection, schedule: Q01DX001 (ip), vehicle: saline with Tween-80): 51 % of control

Structure (SMILES): Nc1nc([Se])c2ncn(C3OC(CO)C(O)C3O)c2n1 (stereo unspecified)
- T/C (endpoint: median tumor weight (est.), dose: 2.0 mg/kg/injection, schedule: Q07DX005 (ip), vehicle: saline): 92 % of control
- T/C (endpoint: median tumor weight (est.), dose: 4.0 mg/kg/injection, schedule: Q07DX005 (ip), vehicle: saline): 54 % of control
- T/C (endpoint: median tumor weight (est.), dose: 8.0 mg/kg/injection, schedule: Q07DX005 (ip), vehicle: saline): 68 % of control
- T/C (endpoint: median tumor weight (est.), dose: 8.0 mg/kg/injection, schedule: Q07DX005 (ip), vehicle: suspension in saline): 24 % of control
- T/C (endpoint: median tumor weight (est.), dose: 16.0 mg/kg/injection, schedule: Q07DX005 (ip), vehicle: saline): 70 % of control
- T/C (endpoint: median tumor weight (est.), dose: 16.0 mg/kg/injection, schedule: Q07DX005 (ip), vehicle: suspension in saline): 20 % of control
- T/C (endpoint: median tumor weight (est.), dose: 32.0 mg/kg/injection, schedule: Q07DX005 (ip), vehicle: saline): 30 % of control
- T/C (endpoint: median tumor weight (est.), dose: 32.0 mg/kg/injection, schedule: Q07DX005 (ip), vehicle: suspension in saline): 51 % of control
- T/C (endpoint: median tumor weight (est.), dose: 64.0 mg/kg/injection, schedule: Q07DX005 (ip), vehicle: saline): 27 % of control
- T/C (endpoint: median tumor weight (est.), dose: 64.0 mg/kg/injection, schedule: Q07DX005 (ip), vehicle: suspension in saline): 12 % of control

Structure (SMILES): CN(C)C=O
- T/C (endpoint: median tumor weight (est.), dose: 100.0 mg/kg/injection, schedule: Q07DX005 (ip), vehicle: saline): 78 % of control
- T/C (endpoint: median tumor weight (est.), dose: 400.0 mg/kg/injection, schedule: Q07DX005 (ip), vehicle: saline): 105 % of control
- T/C (endpoint: median tumor weight (est.), dose: 800.0 mg/kg/injection, schedule: Q07DX005 (ip), vehicle: saline): 96 % of control

Structure (SMILES): CCC(C)Nc1ccc(N)cc1 (stereo unspecified)
- T/C (endpoint: median tumor weight (est.), dose: 0.18 mg/kg/injection, schedule: Q07DX005 (ip), vehicle: Klucel (hydroxypropylcellulose) (HPC)): 90 % of control
- T/C (endpoint: median tumor weight (est.), dose: 0.37 mg/kg/injection, schedule: Q07DX005 (ip), vehicle: Klucel (hydroxypropylcellulose) (HPC)): 92 % of control
- T/C (endpoint: median tumor weight (est.), dose: 0.75 mg/kg/injection, schedule: Q07DX005 (ip), vehicle: Klucel (hydroxypropylcellulose) (HPC)): 86 % of control
- T/C (endpoint: median tumor weight (est.), dose: 1.5 mg/kg/injection, schedule: Q07DX005 (ip), vehicle: Klucel (hydroxypropylcellulose) (HPC)): 107 % of control
- T/C (endpoint: median tumor weight change, dose: 0.2 mg/kg/injection, schedule: Q01DX001 (ip), vehicle: Klucel (hydroxypropylcellulose) (HPC)): 123 % of control
- T/C (endpoint: median tumor weight change, dose: 0.37 mg/kg/injection, schedule: Q01DX001 (ip), vehicle: Klucel (hydroxypropylcellulose) (HPC)): 93 % of control
- T/C (endpoint: median tumor weight change, dose: 0.75 mg/kg/injection, schedule: Q01DX001 (ip), vehicle: Klucel (hydroxypropylcellulose) (HPC)): 89 % of control
- T/C (endpoint: median tumor weight change, dose: 1.5 mg/kg/injection, schedule: Q01DX001 (ip), vehicle: Klucel (hydroxypropylcellulose) (HPC)): 101 % of control
- T/C (endpoint: median tumor weight change, dose: 3.0 mg/kg/injection, schedule: Q01DX001 (ip), vehicle: Klucel (hydroxypropylcellulose) (HPC)): 119 % of control

Structure (SMILES): CN(C(=S)S(=O)(=O)C12CC3CC(CC(C3)C1)C2)c1ccccc1
- T/C (endpoint: median tumor weight (est.), dose: 6.25 mg/kg/injection, schedule: Q07DX005 (ip), vehicle: Klucel (hydroxypropylcellulose) (HPC)): 66 % of control
- T/C (endpoint: median tumor weight (est.), dose: 12.5 mg/kg/injection, schedule: Q07DX005 (ip), vehicle: Klucel (hydroxypropylcellulose) (HPC)): 84 % of control
- T/C [8]: 81 % of control
- T/C [9]: 77 % of control
- T/C [10]: 61 % of control

Structure (SMILES): CC(C)(Oc1ccc(-c2cccc3ccccc23)cc1)C(=O)O
- T/C [8]: 48 % of control
- T/C [9]: 52 % of control
- T/C [10]: 57 % of control
- T/C (endpoint: median tumor weight (est.), dose: 200.0 mg/kg/injection, schedule: Q07DX005 (ip), vehicle: Klucel (hydroxypropylcellulose) (HPC)): 79 % of control
- T/C (endpoint: median tumor weight (est.), dose: 400.0 mg/kg/injection, schedule: Q07DX005 (ip), vehicle: Klucel (hydroxypropylcellulose) (HPC)): 39 % of control

Structure (SMILES): COC(=O)C(CSC(c1ccccc1)(c1ccccc1)c1ccccc1)NC(=O)C(CC(N)=O)NC(=O)OCc1ccccc1 (stereo not drawn) (Cbz-Asn-Cys(Trt)-OMe; configuration not given here)
- T/C (endpoint: median tumor weight change, dose: 125.0 mg/kg/injection, schedule: Q01DX001 (ip), vehicle: distilled water + Tween-80): 101 % of control and 116 % of control
- T/C (endpoint: median tumor weight change, dose: 500.0 mg/kg/injection, schedule: Q01DX001 (ip), vehicle: distilled water + Tween-80): 50 % of control
- T/C (endpoint: median tumor weight change, dose: 2000.0 mg/kg/injection, schedule: Q01DX001 (ip), vehicle: distilled water + Tween-80): 40 % of control and 57 % of control

Structure (SMILES): Cn1/c2cc/c1=C(\c1ccc(S(=O)(=O)O)cc1)c1ccc([n-]1)/C(c1ccc(S(=O)(=O)O)cc1)=c1/cc/c([nH]1)=C(\c1ccc(S(=O)(=O)O)cc1)c1ccc([n-]1)/C=2c1ccc(S(=O)(=O)O)cc1.O.O=S(=O)(O)C(F)(F)F.[Cu+2]
- T/C [1]: 124 % of control
